The values below are quoted from earlier work in paper PMC12362594, “Design, Synthesis and Preclinical Evaluation of a Brain-Permeable PET Tracer for P2Y12 Receptor Imaging in the Brain” (Journal of Medicinal Chemistry, 2025).

Structures are written as SMILES.

By IC50 is commonly meant the concentration needed to halve the response being measured.

This data set concerns the target P2Y12 receptor. The arrangement: method as in not given. The note with it: Chinese hamster ovarian cell membranes; reported values from literature; ref not given; cited from earlier work.

For the compound `CCOC(=O)c1cc(C#N)c(N2CCC(C(=O)NS(=O)(=O)Cc3ccccc3)CC2)nc1C` [Compound 5, Ethyl 6-(4-((Benzylsulfonyl)-carbamoyl)-piperidin-1-yl)-5-cyano-2-methylnicotinate, reference compound], the IC50 was 11 nM.
